Article PMC4893694, “Identification of potent maturation inhibitors against HIV-1 clade C” (Scientific Reports, 2016)

How the values were obtained:
[1] = tested on: HIV-1 clade C K3016 virus; experiment: Antiviral assay, spreading HIV-1 infection in HUT-R5 T-cell line (p24 reduction); format: cell-based; settings: Human immunodeficiency virus 1, T-cell, 192 h; HUT-R5 cells infected with K3016, 8 days, HIV-1 p24 in supernatant; representative of two independent experiments
Experimental: HUT-R5 cells were infected with K3016 virus and cultured for eight days in the presence of serial dilutions of each compound. Antiviral activity was monitored by reduction in HIV-1 p24 levels in culture supernatants.
HUT-R5 cells were infected with normalized HIV-1 clade C K3016 virus stocks at 37 °C for 1 h. Cells were then maintained for 8 days in the presence of serial dilutions of MIs. After 8 days, the HIV-1 p24 concentration in the virus supernatants was measured to monitor virus replication.

[2] = Cytotoxicity assay (CellTitre-Blue) in HUT-R5; format: cell-based; settings: human, HUT-R5 cells; HUT-R5, 4 days
Experimental: (§1) Cytotoxicity assays were performed using the CellTitre-Blue Cell Viability Assay kit (Promega, USA) as per manufacturer’s recommendations. HEK-293T and HUT-R5 cell lines were maintained in the presence of serial dilutions of MIs for 4 days and treated with CellTitre-Blue reagent for 4 h at 37 °C. The fluorescent signals were recorded at 530/25excitation and 590/35emission using BioTek microplate reader.

[3] = Cytotoxicity assay (CellTitre-Blue) in HEK-293T; format: cell-based; settings: human, HEK-293T cells
Experimental: as §1

[4] = tested on: HIV-1 clade B molecular clone NL4-3 (CA-SP1 processing); settings: HEK-293T transfected with NL4-3, increasing concentrations 0.1–5.0 μM, western blot
Experimental: (§2) Viral supernatants were pelleted and separated on SDS-PAGE followed by western blotting using HIV-IgG antibody.
(§3) 24 h post-transfection, the culture medium was replaced with fresh DMEM and incubated for another 2 h. MIs were maintained in the culture throughout transfection. […] The clarified supernatants were filtered (pore size 0.45 μm filter disc) to remove residual cellular contaminants. For determination of viral infectivity, the unconcentrated virus was used to infect TZM-bl cells.
(§4) To measure accumulation of CA-SP1, immunoblot analysis of virus-associated proteins was performed. The virus pellet was resuspended in radioimmunoprecipitation assay (RIPA) buffer (50 mM Tris-HCl pH 8.0, 150 mM sodium chloride, 1.0% NP-40, 0.5% sodium deoxycholate, 0.1% SDS) containing 1 × protease inhibitor cocktail (Roche, Germany). […] The proteins were visualized by enhanced chemiluminescence (Pierce, USA) and the bands were quantified using ImageJ software (http://imagej.nih.gov/ij/).

[5] = tested on: HIV-1 clade C molecular clone IndieC1 (CA-SP1 processing); settings: HEK-293T transfected with IndieC1, increasing concentrations 0.1–5.0 μM, western blot
Experimental: as §2, §3, §4

[6] = tested on: HIV-1 clade C molecular clone ZM247 (CA-SP1 processing); settings: HEK-293T transfected with ZM247, increasing concentrations 0.1–5.0 μM, western blot
Experimental: as §2, §3, §4

[7] = tested on: HIV-1 clade C molecular clone K3016 (CA-SP1 processing); format: cell-based; settings: for activity (CA-SP1 accumulation): K3016, 10 nM; for accumulation of the CA-SP1 processing intermediate over a range of doses: K3016, 2–50 nM
Experimental: as §2, §3, §4

| SMILES | IC50 [1] [nM] | CC50 at 4 days [2] [nM] | CC50 at 4 days [3] [nM] | accumulation of p25 (CA-SP1) [4] | accumulation of p25 (CA-SP1) [5] | accumulation of p25 (CA-SP1) [6] | accumulation of p25 (CA-SP1) ([7]; HEK-293T transfected with K3016, increasing concentrations 0.1–5.0 μM, western blot) | activity (CA-SP1 accumulation) [7] [%] | accumulation of the CA-SP1 processing intermediate over a range of doses [7] |
| --- | --- | --- | --- | --- | --- | --- | --- | --- | --- |
| C=C(C)[C@@H]1CC[C@]2(C(=O)O)CC[C@]3(C)[C@H](CC[C@@H]4[C@@]5(C)CC[C@H](OC(=O)CC(C)(C)C(=O)O)C(C)(C)[C@@H]5CC[C@]43C)[C@@H]12 [BVM, 3-0-(3′-3′-dimethylsuccinyl) betulinic acid, reference compound] | > 1000 | > 1000 | > 5000 | dose-dependent accumulation of p25 | resistant | resistant | resistant | – | – |
| C=C(C)C1CCC2(CCNCCCN3CCCC3)CCC3(C)C(CCC4C5(C)CCC(OC(=O)CC(C)(C)CC(=O)O)C(C)(C)C5CCC43C)C12 (stereo not shown) [Compound 7h] | 11.3 | > 1000 | > 1000 | – | – | – | – | – | – |
| C=C(C)C1CCC2(CCNC3CCN(C)CC3)CCC3(C)C(CCC4C5(C)CCC(OC(=O)CC(C)(C)CC(=O)O)C(C)(C)C5CCC43C)C12 (stereo not shown) [Compound 7j] | 5.9 | > 1000 | > 1000 | – | – | – | – | – | – |
| C=C(C)C1CCC2(CCNCCN(C)C)CCC3(C)C(CCC4C5(C)CCC(OC(=O)CC(C)(C)CC(=O)O)C(C)(C)C5CCC43C)C12 (stereo not shown) [Compound 7m] | 1.4 | > 1000 | > 1000 | – | – | – | – | ~40 | dose-dependent accumulation |
| C=C(C)C1CCC2(CCNC3CCN(CC)CC3)CCC3(C)C(CCC4C5(C)CCC(OC(=O)CC(C)(C)CC(=O)O)C(C)(C)C5CCC43C)C12 (stereo not shown) [Compound 7r] | 1.5 | > 1000 | > 1000 | – | – | – | – | ~40 | dose-dependent accumulation |
| C=C(C)C1CCC2(CCNC3CCN(CCO)CC3)CCC3(C)C(CCC4C5(C)CCC(OC(=O)CC(C)(C)CC(=O)O)C(C)(C)C5CCC43C)C12 (stereo not shown) [Compound 7s] | 1.3 | > 1000 | > 1000 | – | – | – | – | ~40 | dose-dependent accumulation |
